According to patent US20210045385A1, “PYRIDAZINONE-SUBSTITUTED KETOXIMES AS HERBICIDES” (FMC Corporation, priority 2018, published 2021):

Legend:
Type in all cases: in vivo
[1] = test system: barnyardgrass (Echinochloa crus-galli); experiment: Test B flooded paddy test, visual plant response rating; details: 250 g ai/ha, Flood, applied to paddy water, 2-leaf stage, evaluated after 13 to 15 days
Summary of the method: (§1)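 Flooded-pot treatment: water 3 cm over the soil, chemical delivered into that water, depth unchanged for the duration. Assessed by eye versus controls following 13–15 greenhouse days; plants were at 2 leaves when dosed.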

[2] = test system: ducksalad (Heteranhera limosa); experiment: as above; details: 250 g ai/ha, Flood, applied to paddy water, 2-leaf stage, evaluated after 13 to 15 days
Summary of the method: as §1

[3] = test system: sedge, umbrella (small-flower umbrella sedge, Cyperus difformis); experiment: as above; details: 250 g ai/ha, Flood, applied to paddy water, 2-leaf stage, evaluated after 13 to 15 days
Summary of the method: as §1

rice (Oryza sativa) = experiment: as above; details: 250 g ai/ha, Flood, applied to paddy water, 2-leaf stage, evaluated after 13 to 15 days
Summary of the method: as §1

[4] = test system: ragweed (common ragweed, Ambrosia elatior); experiment: Test A postemergence, visual plant response rating; details: for Ragweed plant response rating (0 to 100 scale): 500 g ai/ha, postemergence, 0 is no effect, 100 is complete control; for Ragweed plant response rating: Postemergence, 125 g ai/ha, 0 to 100 scale (0 no effect, 100 complete control)
Summary of the method: (§2)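 Greenhouse evaluation, approx. 10 days post-spray. Soil: loam + sand. Postemergence stage: 1–2 leaves, height 2–10 cm. Vehicle: non-phytotoxic solvent blend with surfactant. Score: visual injury on a 0 (no effect) to 100 (complete control) scale.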

[5] = test system: pigweed (Amaranthus retroflexus); experiment: Test A postemergence, visual plant response rating; details: for Pigweed plant response rating (0 to 100 scale): 500 g ai/ha, postemergence, 0 is no effect, 100 is complete control; for Pigweed plant response rating: Postemergence, 125 g ai/ha, 0 to 100 scale (0 no effect, 100 complete control)
Summary of the method: as §2

[6] = test system: barnyardgrass (Echinochloa crus-galli); experiment: Test A postemergence, visual plant response rating; details: for Barnyardgrass plant response rating (0 to 100 scale): 500 g ai/ha, postemergence, 0 is no effect, 100 is complete control; for Barnyardgrass plant response rating: Postemergence, 125 g ai/ha, 0 to 100 scale (0 no effect, 100 complete control)
Summary of the method: as §2

[7] = test system: foxtail, giant (giant foxtail, Setaria faberii); experiment: Test A postemergence, visual plant response rating; details: for Foxtail, Giant plant response rating (0 to 100 scale): 500 g ai/ha, postemergence, 0 is no effect, 100 is complete control; for Foxtail, Giant plant response rating: Postemergence, 125 g ai/ha, 0 to 100 scale (0 no effect, 100 complete control)
Summary of the method: as §2

[8] = test system: wheat (Triticum aestivum); experiment: Test A postemergence, visual plant response rating; details: Postemergence; for Wheat plant response rating: 500 g ai/ha, 0 to 100 scale (0 no effect, 100 complete control); for Wheat plant response rating (0 to 100 scale): approx. 10 days
Summary of the method: as §2

[9] = test system: Italian ryegrass (Lolium multiflorum); experiment: Test A postemergence, visual plant response rating
Summary of the method: as §2

corn (Zea mays) = experiment: Test A postemergence, visual plant response rating; details: for Corn plant response rating (0 to 100 scale): 500 g ai/ha, postemergence, 0 is no effect, 100 is complete control; for Corn plant response rating: Postemergence, 125 g ai/ha, 0 to 100 scale (0 no effect, 100 complete control)
Summary of the method: as §2

[10] = test system: blackgrass (Alopecurus myosuroides); experiment: Test A postemergence, visual plant response rating; details: for Blackgrass plant response rating (0 to 100 scale): 500 g ai/ha, postemergence, 0 is no effect, 100 is complete control; for Blackgrass plant response rating: Postemergence, 125 g ai/ha, 0 to 100 scale (0 no effect, 100 complete control)
Summary of the method: as §2

[11] = test system: galium (catchweed bedstraw, Galium aparine); experiment: Test A postemergence, visual plant response rating; details: for Galium plant response rating (0 to 100 scale): 500 g ai/ha, postemergence, 0 is no effect, 100 is complete control; for Galium plant response rating: Postemergence, 125 g ai/ha, 0 to 100 scale (0 no effect, 100 complete control)
Summary of the method: as §2

kochia (Kochia scoparia) [12] = experiment: Test A postemergence, visual plant response rating; details: for Kochia plant response rating (0 to 100 scale): 500 g ai/ha, postemergence, 0 is no effect, 100 is complete control; for Kochia plant response rating: Postemergence, 125 g ai/ha, 0 to 100 scale (0 no effect, 100 complete control)
Summary of the method: as §2

[13] = test system: ragweed (common ragweed, Ambrosia elatior); experiment: Test A preemergence, visual plant response rating; details: for Ragweed plant response rating: 125 g ai/ha, preemergence, 0 to 100 scale, 0 no effect, 100 complete control; for Ragweed plant response rating (0 to 100 scale): 500 g ai/ha Preemergence, approx. 10 days
Summary of the method: as §2

[14] = test system: pigweed (Amaranthus retroflexus); experiment: Test A preemergence, visual plant response rating; details: for Pigweed plant response rating: 125 g ai/ha, preemergence, 0 to 100 scale, 0 no effect, 100 complete control; for Pigweed plant response rating (0 to 100 scale): 500 g ai/ha Preemergence, approx. 10 days
Summary of the method: as §2

[15] = test system: barnyardgrass (Echinochloa crus-galli); experiment: Test A preemergence, visual plant response rating; details: for Barnyardgrass plant response rating: 125 g ai/ha, preemergence, 0 to 100 scale, 0 no effect, 100 complete control; for Barnyardgrass plant response rating (0 to 100 scale): 500 g ai/ha Preemergence, approx. 10 days
Summary of the method: as §2

[16] = test system: foxtail, giant (giant foxtail, Setaria faberii); experiment: Test A preemergence, visual plant response rating; details: for Foxtail, Giant plant response rating: 125 g ai/ha, preemergence, 0 to 100 scale, 0 no effect, 100 complete control; for Foxtail, Giant plant response rating (0 to 100 scale): 500 g ai/ha Preemergence, approx. 10 days
Summary of the method: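 Ratings 0–100 (100 = complete control), visual, vs untreated controls at ~10 days. Application pre- or postemergence; solvent mixture with surfactant; loam/sand medium.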

[17] = test system: Italian ryegrass (Lolium multiflorum); experiment: Test A preemergence, visual plant response rating; details: for Ryegrass, Italian plant response rating: 125 g ai/ha, preemergence, 0 to 100 scale, 0 no effect, 100 complete control; for Ryegrass, Italian plant response rating (0 to 100 scale): 500 g ai/ha Preemergence, approx. 10 days
Summary of the method: as §2

kochia (Kochia scoparia) [18] = experiment: Test A preemergence, visual plant response rating; details: for Kochia plant response rating: 125 g ai/ha, preemergence, 0 to 100 scale, 0 no effect, 100 complete control; for Kochia plant response rating (0 to 100 scale): 500 g ai/ha Preemergence, approx. 10 days
Summary of the method: as §2

[19] = 500 g ai/ha, postemergence, 0 is no effect, 100 is complete control
[20] = Postemergence, rate not given, approx. 10 days

SMILES | Plant response rating, Barnyardgrass (0 to 100 scale, 0 is no effect, 100 is complete control) [1] | Plant response rating, Ducksalad (0 to 100 scale, 0 is no effect, 100 is complete control) [2] | Plant response rating, Sedge, Umbrella (0 to 100 scale, 0 is no effect, 100 is complete control) [3] | Plant response rating, Rice (0 to 100 scale, 0 is no effect, 100 is complete control) (rice (Oryza sativa)) | Ragweed plant response rating (0 to 100 scale) [4] | Ragweed plant response rating [4] | Pigweed plant response rating (0 to 100 scale) [5] | Pigweed plant response rating [5] | Barnyardgrass plant response rating (0 to 100 scale) [6] | Barnyardgrass plant response rating [6] | Foxtail, Giant plant response rating (0 to 100 scale) [7] | Foxtail, Giant plant response rating [7] | Wheat plant response rating [8] | Wheat plant response rating (0 to 100 scale) [8] | Ryegrass, Italian plant response rating (0 to 100 scale) [9, 19] | Ryegrass, Italian plant response rating (0 to 100 scale) [9, 20] | Corn plant response rating (0 to 100 scale) (corn (Zea mays)) | Corn plant response rating (corn (Zea mays)) | Blackgrass plant response rating (0 to 100 scale) [10] | Blackgrass plant response rating [10] | also measured
CON=C(c1ccc(C)o1)c1c(O)c(C)nn(C)c1=O [Compound 141] | 0 | 0 | 0 | 0 | 0 | 0 | 0 | 0 | 0 | 0 | 0 | 0 | 0 | 0 | 0 | 0 | 0 | 0 | 30 | 10 | Galium plant response rating (0 to 100 scale) [11]: 10; Galium plant response rating [11]: 0; Kochia plant response rating (0 to 100 scale) (kochia (Kochia scoparia) [12]): 0; Kochia plant response rating (kochia (Kochia scoparia) [12]): 0; Ragweed plant response rating [13]: 0; Ragweed plant response rating (0 to 100 scale) [13]: 0; Pigweed plant response rating [14]: 0; Pigweed plant response rating (0 to 100 scale) [14]: 0; Barnyardgrass plant response rating [15]: 0; Barnyardgrass plant response rating (0 to 100 scale) [15]: 0; Foxtail, Giant plant response rating [16]: 0; Foxtail, Giant plant response rating (0 to 100 scale) [16]: 0; Ryegrass, Italian plant response rating [17]: 0; Ryegrass, Italian plant response rating (0 to 100 scale) [17]: 20; Kochia plant response rating (kochia (Kochia scoparia) [18]): 0; Kochia plant response rating (0 to 100 scale) (kochia (Kochia scoparia) [18]): 0
CO/N=C(/c1c(O)c(C)nn(C)c1=O)c1ccc(OC)c2ccccc12 [Compound 142] | 0 | 0 | 0 | 0 | 30 | 0 | 10 | 10 | 10 | 10 | 30 | 20 | 10 | 0 | 70 | 0 | 30 | 0 | 80 | 30 | Galium plant response rating (0 to 100 scale) [11]: 70; Galium plant response rating [11]: 50; Kochia plant response rating (0 to 100 scale) (kochia (Kochia scoparia) [12]): 30; Kochia plant response rating (kochia (Kochia scoparia) [12]): 0; Ragweed plant response rating [13]: 0; Ragweed plant response rating (0 to 100 scale) [13]: 20; Pigweed plant response rating [14]: 0; Pigweed plant response rating (0 to 100 scale) [14]: 0; Barnyardgrass plant response rating [15]: 0; Barnyardgrass plant response rating (0 to 100 scale) [15]: 50; Foxtail, Giant plant response rating [16]: 10; Foxtail, Giant plant response rating (0 to 100 scale) [16]: 60; Ryegrass, Italian plant response rating [17]: 0; Ryegrass, Italian plant response rating (0 to 100 scale) [17]: 20; Kochia plant response rating (kochia (Kochia scoparia) [18]): 0; Kochia plant response rating (0 to 100 scale) (kochia (Kochia scoparia) [18]): 0
CO/N=C(/c1c(O)c(Cl)nn(C)c1=O)c1cccc2ccccc12 [Compound 145, 6-chloro-5-hydroxy-4-[(E)-(methoxyimino)-1-naphthalenylmethyl]-2-methyl-3(2H)-pyridazinone] | 0 | 0 | 0 | 0 | 100 | 100 | 80 | 30 | 60 | 30 | 60 | 30 | 0 | 0 | 10 | 20 | 0 | 0 | 70 | 30 | Galium plant response rating (0 to 100 scale) [11]: 100; Galium plant response rating [11]: 90; Kochia plant response rating (0 to 100 scale) (kochia (Kochia scoparia) [12]): 90; Kochia plant response rating (kochia (Kochia scoparia) [12]): 80; Ragweed plant response rating [13]: 100; Ragweed plant response rating (0 to 100 scale) [13]: 100; Pigweed plant response rating [14]: 50; Pigweed plant response rating (0 to 100 scale) [14]: 90; Barnyardgrass plant response rating [15]: 60; Barnyardgrass plant response rating (0 to 100 scale) [15]: 80; Foxtail, Giant plant response rating [16]: 50; Foxtail, Giant plant response rating (0 to 100 scale) [16]: 80; Ryegrass, Italian plant response rating [17]: 0; Ryegrass, Italian plant response rating (0 to 100 scale) [17]: 10; Kochia plant response rating (kochia (Kochia scoparia) [18]): 70; Kochia plant response rating (0 to 100 scale) (kochia (Kochia scoparia) [18]): 90
CCO/N=C(\c1c(O)c(Cl)nn(C)c1=O)c1cccc2ccccc12 [Compound 146] | 0 | 0 | 0 | 0 | 100 | 90 | 90 | 70 | 60 | 30 | 70 | 60 | 0 | 0 | 0 | 0 | 20 | 30 | 60 | 30 | Galium plant response rating (0 to 100 scale) [11]: 90; Galium plant response rating [11]: 70; Kochia plant response rating (0 to 100 scale) (kochia (Kochia scoparia) [12]): 80; Kochia plant response rating (kochia (Kochia scoparia) [12]): 60; Ragweed plant response rating [13]: 90; Ragweed plant response rating (0 to 100 scale) [13]: 100; Pigweed plant response rating [14]: 80; Pigweed plant response rating (0 to 100 scale) [14]: 100; Barnyardgrass plant response rating [15]: 60; Barnyardgrass plant response rating (0 to 100 scale) [15]: 60; Foxtail, Giant plant response rating [16]: 70; Foxtail, Giant plant response rating (0 to 100 scale) [16]: 80; Ryegrass, Italian plant response rating [17]: 0; Ryegrass, Italian plant response rating (0 to 100 scale) [17]: 0; Kochia plant response rating (kochia (Kochia scoparia) [18]): 30; Kochia plant response rating (0 to 100 scale) (kochia (Kochia scoparia) [18]): 100
